Results as given in patent US20070004660A1, “Synergistic Modulation of Flt3 Kinase Using Alkylquinolines and Alkylquinazolines” (priority 2005, published 2007).

These molecules were tested against T1, wild-type FLT3 receptor (Homo sapiens, UniProt P36888) (assay: Cell-based FLT3 receptor ELISA (FLT ligand-induced phosphorylation in Baf3 FLT3 cells)). Details: 100 ng/mL Flt ligand, uncertainty ±20%.
T1 construct: host or cells: Baf3 (murine B cell lymphoma line), stably transfected
T1 sequence (P36888 27-993): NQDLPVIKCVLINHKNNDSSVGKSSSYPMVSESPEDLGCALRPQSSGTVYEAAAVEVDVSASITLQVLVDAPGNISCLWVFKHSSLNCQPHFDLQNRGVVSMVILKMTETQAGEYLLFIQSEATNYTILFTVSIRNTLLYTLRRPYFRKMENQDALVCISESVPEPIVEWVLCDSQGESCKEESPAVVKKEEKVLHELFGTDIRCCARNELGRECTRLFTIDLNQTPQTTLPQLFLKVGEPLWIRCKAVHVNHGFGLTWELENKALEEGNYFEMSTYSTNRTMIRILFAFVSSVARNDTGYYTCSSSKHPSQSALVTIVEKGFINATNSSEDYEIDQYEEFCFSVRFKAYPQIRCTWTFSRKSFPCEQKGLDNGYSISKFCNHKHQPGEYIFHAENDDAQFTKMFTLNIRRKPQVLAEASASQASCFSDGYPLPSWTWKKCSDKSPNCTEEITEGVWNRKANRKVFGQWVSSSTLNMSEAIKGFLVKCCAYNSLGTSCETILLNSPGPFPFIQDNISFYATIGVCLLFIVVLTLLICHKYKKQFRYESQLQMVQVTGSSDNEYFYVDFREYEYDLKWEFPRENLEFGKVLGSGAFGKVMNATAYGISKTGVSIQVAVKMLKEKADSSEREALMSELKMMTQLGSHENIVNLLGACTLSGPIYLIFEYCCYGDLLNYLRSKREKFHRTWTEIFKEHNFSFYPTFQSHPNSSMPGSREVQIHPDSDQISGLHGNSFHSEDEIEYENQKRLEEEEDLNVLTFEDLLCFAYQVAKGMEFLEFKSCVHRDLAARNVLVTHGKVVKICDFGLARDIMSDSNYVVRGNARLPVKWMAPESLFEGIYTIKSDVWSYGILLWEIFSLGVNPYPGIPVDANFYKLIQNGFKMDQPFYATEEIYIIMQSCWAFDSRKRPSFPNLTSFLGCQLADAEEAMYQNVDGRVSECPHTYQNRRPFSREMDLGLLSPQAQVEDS
Summary of the method: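 Receptor phosphotyrosine measured by sandwich ELISA (anti-FLT3 capture, HRP anti-pTyr, luminescence) in FLT3-transfected murine Baf3 cells given 1 h compound pretreatment and 10 min 100 ng/mL FLT ligand after overnight low-serum starvation; triplicates, IC50 from nonlinear regression.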

Question: With O=C1CCCN1CCOc1cc2ncnc(C3CCN(C(=O)Nc4ccc(N5CCCC5)cc4)CC3)c2cc1F [Compound 206, 4-{6-Fluoro-7-[2-(2-oxo-pyrrolidin-1-yl)-ethoxy]-quinazolin-4-yl}-piperidine-1-carboxylic acid (4-pyrrolidin-1-yl-phenyl)-amide] as the molecule, how does the IC50 read?
Answer: The IC50 was 22 nM.

Question: COc1cc2c(C3CCN(C(=O)Nc4ccc(N5CCOCC5)cc4)CC3)ncnc2cc1OCCCN1CCN(C)CC1 [Compound 207, 4-{6-Methoxy-7-[3-(4-methyl-piperazin-1-yl)-propoxy]-quinazolin-4-yl}-piperidine-1-carboxylic acid (4-morpholin-4-yl-phenyl)-amide] was tested. Which IC50 did it give?
Answer: The IC50 was 42 nM.

Question: For COc1cc2c(C3CCN(C(=O)Nc4ccc(N5CCCC5)cc4)CC3)ncnc2cc1OCCN1CCCC1=O [Compound 209, 4-{6-Methoxy-7-[2-(2-oxo-pyrrolidin-1-yl)-ethoxy]-quinazolin-4-yl}-piperidine-1-carboxylic acid (4-pyrrolidin-1-yl-phenyl)-amide], which IC50 is on record?
Answer: Its IC50 is 37 nM.

Question: How did the IC50 turn out when O=C(Nc1ccc(N2CCCC2)cc1)N1CCC(c2ncnc3cc(N4CCOCC4)c(F)cc23)CC1 [Compound 210, 4-(6-Fluoro-7-morpholin-4-yl-quinazolin-4-yl)-piperidine-1-carboxylic acid (4-pyrrolidin-1-yl-phenyl)-amide] was run?
Answer: The IC50 was 25 nM.

Question: COc1cc2c(C3CCN(C(=O)Nc4ccc(N5CCCC5)cc4)CC3)ncnc2cc1N1CCOCC1 [Compound 211, 4-(6-Methoxy-7-morpholin-4-yl-quinazolin-4-yl)-piperidine-1-carboxylic acid (4-pyrrolidin-1-yl-phenyl)-amide] was tested. Which IC50 did it give?
Answer: The IC50 was 1 nM.

Question: With COc1cc2c(C3CCN(C(=O)Nc4ccc(N5CCOCC5)cc4)CC3)ncnc2cc1N1CCOCC1 [Compound 212, 4-(6-Methoxy-7-morpholin-4-yl-quinazolin-4-yl)-piperidine-1-carboxylic acid (4-morpholin-4-yl-phenyl)-amide] as the molecule, how does the IC50 read?
Answer: The IC50 was 93 nM.

Question: COc1cc2ncnc(C3CCN(C(=O)Nc4ccc(I)cc4)CC3)c2cc1OC [Example 2, 4-(6,7-Dimethoxy-quinazolin-4-yl)-piperidine-1-carboxylic acid (4-iodo-phenyl)-amide] was tested. Which IC50 did it give?
Answer: The IC50 was 890 nM.

Question: How did the IC50 turn out when COc1cc2ncnc(C3CCN(C(=O)Nc4ccc(-n5ccnc5)cc4)CC3)c2cc1OC [Example 3, 4-(6,7-Dimethoxy-quinazolin-4-yl)-piperidine-1-carboxylic acid (4-imidazol-1-yl-phenyl)-amide] was run?
Answer: Its IC50 is 938 nM.

Question: With COc1cc2ncnc(C3CCN(C(=O)Nc4ccc(NC(C)=O)cc4)CC3)c2cc1OC [Example 25, 4-(6,7-Dimethoxy-quinazolin-4-yl)-piperidine-1-carboxylic acid (4-acetylamino-phenyl)-amide] as the molecule, how does the IC50 read?
Answer: The IC50 was greater than 10000 nM.

Question: How did the IC50 turn out when COc1cc2ncnc(C3CCN(C(=O)Nc4ccc(N(C)C)cc4)CC3)c2cc1OC [Example 26, 4-(6,7-Dimethoxy-quinazolin-4-yl)-piperidine-1-carboxylic acid (4-dimethylamino-phenyl)-amide] was run?
Answer: Its IC50 is 109 nM.

Question: For COc1cc2ncnc(C3CCN(C(=O)Cc4ccc(C(C)C)cc4)CC3)c2cc1OC [Example 28, 1-[4-(6,7-Dimethoxy-quinazolin-4-yl)-piperidin-1-yl]-2-(4-isopropyl-phenyl)-ethanone], which IC50 is on record?
Answer: The IC50 was 2 nM.

Question: For CC(C)Oc1ccc(NC(=O)N2CCC(c3ncnc4cc(Cl)ccc34)CC2)cc1 [Example 29, 4-(7-Chloro-quinazolin-4-yl)-piperidine-1-carboxylic acid (4-isopropoxy-phenyl)-amide], which IC50 is on record?
Answer: The IC50 was 50 nM.

Question: Which IC50 does the source give for CC(C)c1ccc(NC(=O)N2CCC(c3ncnc4cc(Cl)ccc34)CC2)cc1 [Example 30, 4-(7-Chloro-quinazolin-4-yl)-piperidine-1-carboxylic acid (4-isopropyl-phenyl)-amide] here?
Answer: The IC50 was 83 nM.

Question: For COc1ccc2c(C3CCN(C(=O)Nc4ccc(OC(C)C)cc4)CC3)ncnc2c1 [Example 31, 4-(7-Methoxy-quinazolin-4-yl)-piperidine-1-carboxylic acid (4-isopropoxy-phenyl)-amide], which IC50 is on record?
Answer: The IC50 was 55 nM.

Question: For COc1ccc2c(C3CCN(C(=O)Nc4ccc(C(C)C)cc4)CC3)ncnc2c1 [Example 32, 4-(7-Methoxy-quinazolin-4-yl)-piperidine-1-carboxylic acid (4-isopropyl-phenyl)-amide], which IC50 is on record?
Answer: The IC50 was 35 nM.

Question: Which IC50 does the source give for CC(C)Oc1ccc(NC(=O)N2CCC(c3ncnc4cc(OCCCN5CCCCC5)ccc34)CC2)cc1 [Example 33, 4-(7-(3-Piperidin-1-yl-propoxy)-quinazolin-4-yl)-piperidine-1-carboxylic acid (4-isopropoxy-phenyl)-amide] here?
Answer: The IC50 was 11 nM.

Question: With CC(C)Oc1ccc(NC(=O)N2CCC(c3ncnc4cc(OCCN5CCCCC5)ccc34)CC2)cc1 [Example 34, 4-(7-(2-Piperindin-1-yl-ethoxy)-quinazolin-4-yl)-piperidine-1-carboxylic acid (4-isopropoxy-phenyl)-amide] as the molecule, how does the IC50 read?
Answer: The IC50 was 79 nM.

Question: CCN(CC)CCOc1ccc2c(C3CCN(C(=O)Nc4ccc(OC(C)C)cc4)CC3)ncnc2c1 [Example 35, 4-[7-(2-Diethylamino-ethoxy)-quinazolin-4-yl)-piperidine-1-carboxylic acid (4-isopropoxy-phenyl)-amide] was tested. Which IC50 did it give?
Answer: The IC50 was 60 nM.

Question: Which IC50 does the source give for CCN(CC)CCCOc1ccc2c(C3CCN(C(=O)Nc4ccc(OC(C)C)cc4)CC3)ncnc2c1 [Example 36, 4-[7-(3-Diethylamino-propoxy)-quinazolin-4-yl)-piperidine-1-carboxylic acid (4-isopropoxy-phenyl)-amide] here?
Answer: The IC50 was 18 nM.

Question: How did the IC50 turn out when CC(C)Oc1ccc(NC(=O)N2CCC(c3ncnc4cc(OCCN5CCOCC5)ccc34)CC2)cc1 [Example 37] was run?
Answer: The IC50 was 51 nM.

Question: With CC(C)Oc1ccc(NC(=O)N2CCC(c3ncnc4cc(OCCCN5CCOCC5)ccc34)CC2)cc1 [Example 38] as the molecule, how does the IC50 read?
Answer: The IC50 was 15 nM.

Question: Which IC50 does the source give for CC(C)Oc1ccc(NC(=O)N2CCC(c3ncnc4cc(OCCCN5CCN(C)CC5)ccc34)CC2)cc1 [Example 39] here?
Answer: The IC50 was 8 nM.

Question: With COCCOc1ccc(NC(=O)N2CCC(c3ncnc4cc(OC)c(OC)cc34)CC2)cc1 [Example 40, 4-(6,7-Dimethoxy-quinazolin-4-yl)-piperidine-1-carboxylic acid [4-(2-methoxy-ethoxy)-phenyl]-amide] as the molecule, how does the IC50 read?
Answer: Its IC50 is 1500 nM.
